Patent publication US20120165334A1, “Indole/Benzimidazole Compounds as mTOR Kinase Inhibitors” (AMGEN INC., priority 2009, published 2012)
Like-named read-outs stand apart in the source and are kept apart here.

Tests used:
mTOR = molecular target: T1, mTOR (Homo sapiens, UniProt P42345); test: mTOR LanthaScreen (TR-FRET, phosphorylation of 4EBP1); assay type: biochemical; conditions: read-out: AA11016+++mTor_MA_IC50_IP
T1 construct: 2.5 μl of 0.6 μg/ml of mTOR Enzyme (Amgen) was added to rows 1-23
Experimental: The mTOR LanthaScreen is a TR-FRET assay measuring the phosphorylation of mTOR's substrate 4EBP1. 384 well compound plates were prepared containing 1 μl of compound per well starting at 5 mM and diluted 1:2 across the row, resulting in a 22 well serial dilution.
The assay was conducted on the PerkinElmer® FlexDrop PLUS. A 5 μl mix of 800 nM GFP-4E-BP1 (Invitrogen, PV4759) and 20 μM ATP (Amgen) was added to rows 1-24. 2.5 μl of 0.6 μg/ml of mTOR Enzyme (Amgen) was added to rows 1-23. 2.5 μl of assay buffer was added to row 24 for the low control. […] The final concentrations in the assay reagents were 400 nM GFP-4E-BP1, 10 μM of ATP and 0.15 μg/ml of mTOR enzyme. The compound, enzyme, and substrate incubate for 90 minutes.

[1] = test system: phosphorylation of Akt at Serine 473; test: pAkt AlphaScreen in U87 MG cells; assay type: cell-based; conditions: read-out: AA11809+++pAKT_U87_IC50_IP
Experimental: The pAkt AlphaScreen assay determines whether there is phosphorylation of Akt at Serine 473 by recruitment of a phosphospecific antibody. This assay was performed using U87 MG cells. […] The cells were maintained weekly using 0.05% Trypsin (Gibco, 25300-054) and replated in 150 mm TC—Treated Culture Dishes (Corning, 430599).
The first day of the assay, the adherent cells were trypsinized, media was added to the loose cells and cells were mixed to a homogenous mixture. 0.5 ml of the homogenous mixture was counted on the Beckman Coulter® Vi-CELL™ XR. 50 frames of cells were counted and the number of viable cells was determined. The cells were then diluted to 0.25 million cells per ml, and centrifuged at 200 rcf for 5 minutes. The media was removed and the cells were reconstituted in fresh media for plating. The cells were plated at 20 μl per well on the PerkinElmer® FlexDrop PLUS in Low Volume 384 Well White Tissue Culture Plates (Corning, 3826) with a final cell density of 5K cells per well. The plates were incubated overnight at 37° Celsius, 5% CO2.
On the second day, the compound plates were prepared, the cells were treated with compound and the pAkt reaction mix was added to the cell lysate. 384 well compound plates were prepared by Amgen's Sample Bank containing […] of compound per well starting at 5 mM and diluted 1:2 across the row, resulting in a 22 well serial dilution. 39 μl of growth media was added to the compound plate in rows 1-22 using the PerkinElmer® FlexDrop PLUS resulting in a DMSO concentration of 2.5%. The control columns were added manually; 40 μl of 2.5% DMSO (Sigma, D4540-100 ml) in growth media was added to the plate for the high control and 40 μl of 50 μM of AMG2203766 with 2.5% DMSO was added to the plate as the low control. The cell plates and diluted compound plates were put onto the VELOCITY1 1™ VPREP™ 384 ST where the compound plate was mixed and 5 μl of serially diluted compound or controls was added to the cell plate. […] The cell plates were then incubated with compound for two hours at 37° Celsius, 5% CO2. After two hours, the media in the cell plates was aspirated using the BioTek® ELx405HT plate washer removing the majority of media and compound without disturbing the adherent U87 cells. The following assay reagents are components of the SureFire Akt (Ser 473) Phosphorylation 50K Point Kit (TGR BioSciences, TGRAS50K) and an IgG Detection Kit (PerkinElmer, 6760617R). […] The plates were then incubated at room temperature on a shaker for ten minutes. The AlphaScreen reaction was prepared under low light conditions (subdued or green light) including p-Akt (Ser 473) Reaction Buffer, Dilution Buffer, Activation Buffer, Acceptor Beads and Donor Beads at a ratio of 40:20:10:1:1 respectively. The AlphaScreen reaction was added to the cell lysate at 6 μl per well using the PerkinElmer® FlexDrop PLUS. The plates were placed in a humid environment to reduce edge effects and incubated overnight at room temperature with restricted air flow in the dark.
On the final day of the experiment, the plates were read on the PerkinElmer® EnVision™ 2103 Multilable Reader using the standard AlphaScreen readout. The POC is calculated and the data is analyzed to report the IC50 IP for pAkt at Serine 473.

PI3Ka = PI3Ka (Homo sapiens, UniProt P42336); test: PI3Ka Alpha assay; assay type: biochemical; conditions: the values are: IC50
Sequence of PI3Ka (P42336 whole entry): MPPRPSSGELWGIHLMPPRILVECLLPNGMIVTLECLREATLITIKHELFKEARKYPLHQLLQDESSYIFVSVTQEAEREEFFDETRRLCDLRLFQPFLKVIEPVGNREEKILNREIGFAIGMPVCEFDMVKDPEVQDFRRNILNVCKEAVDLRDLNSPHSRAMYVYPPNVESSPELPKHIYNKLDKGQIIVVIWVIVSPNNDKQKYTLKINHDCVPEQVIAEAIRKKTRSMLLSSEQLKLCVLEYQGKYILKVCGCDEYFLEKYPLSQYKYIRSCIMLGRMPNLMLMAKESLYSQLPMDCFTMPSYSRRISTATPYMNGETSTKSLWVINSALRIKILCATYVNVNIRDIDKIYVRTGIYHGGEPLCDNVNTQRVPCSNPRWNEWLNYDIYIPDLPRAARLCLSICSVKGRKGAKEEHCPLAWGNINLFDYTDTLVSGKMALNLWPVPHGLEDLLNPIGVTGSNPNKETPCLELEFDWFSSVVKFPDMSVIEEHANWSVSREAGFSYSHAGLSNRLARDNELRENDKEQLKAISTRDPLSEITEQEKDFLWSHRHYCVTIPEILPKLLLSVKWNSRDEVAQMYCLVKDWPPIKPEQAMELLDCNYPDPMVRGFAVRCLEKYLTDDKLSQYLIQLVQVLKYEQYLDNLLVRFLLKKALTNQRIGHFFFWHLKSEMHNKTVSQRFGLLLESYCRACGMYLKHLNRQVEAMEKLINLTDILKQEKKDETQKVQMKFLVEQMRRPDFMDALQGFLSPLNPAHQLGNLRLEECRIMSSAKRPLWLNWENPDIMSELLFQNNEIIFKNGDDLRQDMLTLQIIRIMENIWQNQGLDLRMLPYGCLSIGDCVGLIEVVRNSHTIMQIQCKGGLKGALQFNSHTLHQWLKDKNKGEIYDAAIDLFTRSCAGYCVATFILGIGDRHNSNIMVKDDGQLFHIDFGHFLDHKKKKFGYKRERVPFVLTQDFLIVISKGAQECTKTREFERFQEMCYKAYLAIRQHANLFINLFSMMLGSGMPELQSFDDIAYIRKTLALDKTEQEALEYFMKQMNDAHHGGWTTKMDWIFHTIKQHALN
Sequence of PI3Ka (P27986 whole entry partner): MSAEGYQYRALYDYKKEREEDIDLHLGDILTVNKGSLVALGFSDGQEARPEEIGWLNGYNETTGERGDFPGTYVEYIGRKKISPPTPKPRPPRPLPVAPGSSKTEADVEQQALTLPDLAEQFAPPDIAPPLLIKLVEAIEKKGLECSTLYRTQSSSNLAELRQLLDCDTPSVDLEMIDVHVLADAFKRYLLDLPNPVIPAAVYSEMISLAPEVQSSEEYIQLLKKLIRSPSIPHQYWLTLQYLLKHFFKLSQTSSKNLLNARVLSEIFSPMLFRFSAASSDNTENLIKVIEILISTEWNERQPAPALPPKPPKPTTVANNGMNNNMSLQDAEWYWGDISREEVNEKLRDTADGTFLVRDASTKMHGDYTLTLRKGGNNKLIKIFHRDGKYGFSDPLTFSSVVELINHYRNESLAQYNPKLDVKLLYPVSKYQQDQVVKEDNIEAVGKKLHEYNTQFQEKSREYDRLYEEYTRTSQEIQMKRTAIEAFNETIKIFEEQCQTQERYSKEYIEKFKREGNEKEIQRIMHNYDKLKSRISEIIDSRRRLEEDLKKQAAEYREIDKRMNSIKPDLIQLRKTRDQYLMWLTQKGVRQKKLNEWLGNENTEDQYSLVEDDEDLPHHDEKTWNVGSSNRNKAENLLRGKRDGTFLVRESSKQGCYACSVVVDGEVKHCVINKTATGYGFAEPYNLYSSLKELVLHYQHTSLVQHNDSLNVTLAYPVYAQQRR

[2] = Homo sapiens, U-87 MG, 2 h, U87 MG cells, two hours with compound
[3] = U87 MG cells, two hours with compound

Row | Compound | IC50 (mTOR) | IC50 [1, 2] | AA12047+++PI3Ka Alpha IC50 IP (PI3Ka) | IC50 [1, 3] | IC50 ([1]; Homo sapiens, U-87 MG, 2 h)
1 | CNC(=O)Nc1ccc(Nc2nc3ccccc3n2-c2nc(C)nc(NCC#N)n2)cc1 [Cpd 111] | 0.765 nM | 69.9 nM | 52.8 nM |  | 
2 | Cc1nc(N)nc(-n2c(Nc3cnn(C(=O)N4CCOCC4)c3)nc3ccccc32)n1 [Cpd 201] |  | 652 nM | 3520 nM |  | 
3 | 1-(4-amino-6-methyl-1,3,5-triazin-2-yl)-N-(1-(4-morpholinylcarbonyl)-1H-pyrazol-4-yl)-1H-benzimidazol-2-amine [Cpd 198] |  |  | 2550 nM |  | 
4 | 1-(4-amino-6-methyl-1,3,5-triazin-2-yl)-N-1H-pyrazol-5-yl-5-(4-pyridinyl)-1H-benzimidazol-2-amine [Cpd 144] | 66.6 nM |  | 7260 nM | 125 nM | 
5 | Cc1nc(N)nc(-n2c(Nc3ccn[nH]3)nc3cc(F)c(F)cc32)n1 [Cpd 9, 1-(4-amino-6-methyl-1,3,5-triazin-2-yl)-5,6-difluoro-N-1H-pyrazol-5-yl-1H-benzimidazol-2-amine] | 24.3 nM |  | 485 nM |  | 44.6 nM
6 | CNc1nc(C)nc(-n2c(Nc3cc[nH]n3)nc3cc(C)c(C)cc32)n1 [Cpd 138] | 38.7 nM | 158 nM | 1390 nM |  | 
7 | Cc1nc(N)nc(-n2c(Nc3cccc(O)c3)nc3ccc(C(=O)O)cc32)n1 [Cpd 2, 1-(4-amino-6-methyl-1,3,5-triazin-2-yl)-2-((3-hydroxyphenyl)amino)-1H-benzimidazole-6-carboxylic acid] | 1.38 nM | 224 nM |  |  | 
8 | 1-(4-amino-6-methyl-1,3,5-triazin-2-yl)-N-cyclopropyl-1H-benzimidazol-2-amine [Cpd 61] | 10800 nM |  | 3830 nM | 1040 nM | 
9 | Cc1nc(N)nc(-n2c(Nc3cc(O)cc(O)c3)nc3ccccc32)n1 [Cpd 1, 5-((1-(4-amino-6-methyl-1,3,5-triazin-2-yl)-1H-benzimidazol-2-yl)amino)-1,3-benzenediol] | 0.269 nM |  | 0.646 nM |  | 4.96 nM
10 | 4-((1-(4-amino-6-methyl-1,3,5-triazin-2-yl)-1H-benzimidazol-2-yl)amino)-N-4-pyridinylbenzamide [Cpd 157] | 194 nM |  | 31800 nM | 767 nM | 
11 | 1-(4-((cyclopropylmethyl)amino)-6-methyl-1,3,5-triazin-2-yl)-N-1H-pyrazol-3-yl-1H-benzimidazol-2-amine [Cpd 170] | 1170 nM |  | 1370 nM | 1680 nM | 
12 | 3-((4-methyl-6-(2-(1H-pyrazol-3-ylamino)-1H-benzimidazol-1-yl)-1,3,5-triazin-2-yl)amino)propanenitrile [Cpd 141] |  |  |  | 203 nM | 
13 | 1-(4-amino-6-methyl-1,3,5-triazin-2-yl)-N-(6-methoxy-3-pyridinyl)-1H-benzimidazol-2-amine [Cpd 151] | 124 nM |  | 4550 nM | 88.9 nM | 
14 | Cc1nc(N)nc(-n2c(Nc3ccc(NC(=O)Nc4ccncc4)cc3)nc3ccccc32)n1 [Cpd 115] | 4.4 nM | 132 nM | 7.31 nM |  | 
15 | 1-(4-((1-(4-amino-6-methyl-1,3,5-triazin-2-yl)-1H-benzimidazol-2-yl)amino)phenyl)-3-(3,5-dichlorophenyl)thiourea [Cpd 108] | 2290 nM |  | 470 nM | 1070 nM | 
16 | 1-(4-methyl-6-((2-(4-morpholinyl)ethyl)amino)-1,3,5-triazin-2-yl)-N-1H-pyrazol-3-yl-1H-benzimidazol-2-amine [Cpd 156] | 183 nM |  | 14.6 nM | 54.7 nM | 
